#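 GI50 marks 50% less growth. Definition used: TGI = concentration required for complete inhibition of growth.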
# Assays:
# Assay in all cases: DTP human tumour cell line panel, 384-well format
# [1] = tested on: NCI-H23 lung
# [2] = tested on: MDA-MB-231 breast
# [3] = tested on: 786-0 renal
# [4] = tested on: ACHN renal
# [5] = tested on: OVCAR-8 ovarian
# [6] = tested on: KM12 colon
# [7] = tested on: NCI/ADR-RES ovarian
# [8] = tested on: A498 renal
# [9] = tested on: RXF 393 renal
# [10] = tested on: UO-31 renal
# [11] = tested on: SF-295 CNS
# [12] = tested on: SF-539 CNS
# [13] = tested on: SF-268 CNS
structure (smiles),measurement,setting,value
C1=C/COCc2cc(ccc2OCCN2CCCC2)Nc2nccc(n2)-c2cccc(c2)COC/1,GI50,[1],945 nM
same,TGI,[1],2250 nM
same,GI50,[2],1190 nM
same,TGI,[2],2920 nM
same,GI50,[3],1260 nM
same,TGI,[3],2620 nM
same,GI50,[4],870 nM
same,TGI,[4],4430 nM
same,GI50,[5],1290 nM
same,TGI,[5],2670 nM
same,GI50,[6],321 nM
same,TGI,[6],1330 nM
same,GI50,[7],1910 nM
same,TGI,[7],3990 nM
same,GI50,[8],829 nM
same,TGI,[8],2850 nM
same,GI50,[9],1210 nM
same,TGI,[9],2470 nM
same,GI50,[10],1470 nM
same,TGI,[10],3190 nM
same,GI50,[11],1810 nM
same,TGI,[11],3310 nM
same,GI50,[12],1700 nM
same,TGI,[12],3080 nM
same,GI50,[13],865 nM
same,TGI,[13],2100 nM

# From PubChem BioAssay (NCI)
